Assay results as given in US10273240B2, “Cortistatin analogues, syntheses, and uses thereof” (President and Fellows of Harvard College, priority 2015, dated 2019).

Experiments:
[1] = test system: STAT1 S727 phosphorylation in NK cells; assay: STAT1 pS727 inhibition in NK cells in vivo; details: C57BL/6 mice, NK cells from spleen
[2] = test system: STAT1 S727 phosphorylation; assay: IFN-γ-stimulated STAT1 S727 phosphorylation immunoblot; type: cell-based, human; details: MOLM-14 cells
Method: (§1) Kinase Assays. Data was quantified with ImageJ and plotted and fitted with GraphPad Prism 6.0. For STAT1 transactivation domain (TAD), 750 ng of GST-STAT1 TAD (residues 639-750) was incubated with ˜50 ng recombinant CDK8 module at 30° C. for 8 min in kinase buffer (25 mM Tris pH 8, 2 mM DTT, 100 μM cold ATP, 100 mM KCl, 10 mM MgCl2 and 2.5 μCi [γ-^32P] ATP (Perkin Elmer) per reaction). […] 12% SDS-PAGE gels were subsequently silver stained, exposed for 18 h on a Phosphor Screen and imaged (Typhoon 9400, GE Life Sciences). For pol II CTD, 400 ng of GST-CTD (murine sequence) was incubated with ˜40 ng recombinant CDK8 module, 25 ng TFIIH, or 40 ng P-TEFb at 30° C. for 60 min in kinase buffer. Kinase amounts were chosen to give similar total pol II CTD signal. 9% SDS-PAGE gels were silver stained and exposed as above. In vitro FLAG-CDK8 kinase assays used ˜40 ng kinase and 500 ng GST-CTD. For STAT1 or Smad2/3, cells were treated with compound for 1 h followed by IFN-γ or TGF-β1 for 1 h, then washed twice with cold PBS, and lysed (RIPA buffer with inhibitors R0278, P8340, P0044, P5762 Sigma-Aldrich). Standard immunoblotting was then performed with one immunoblot shown. All experiments were performed twice.

CDK9 (P-TEFb) = target: T1, CDK9 (P-TEFb) (Homo sapiens, UniProt P50750); assay: In vitro kinase assay, CDK9 (P-TEFb); type: biochemical
T1 construct: made in house
T1 sequence (P50750 1-345 limits assumed): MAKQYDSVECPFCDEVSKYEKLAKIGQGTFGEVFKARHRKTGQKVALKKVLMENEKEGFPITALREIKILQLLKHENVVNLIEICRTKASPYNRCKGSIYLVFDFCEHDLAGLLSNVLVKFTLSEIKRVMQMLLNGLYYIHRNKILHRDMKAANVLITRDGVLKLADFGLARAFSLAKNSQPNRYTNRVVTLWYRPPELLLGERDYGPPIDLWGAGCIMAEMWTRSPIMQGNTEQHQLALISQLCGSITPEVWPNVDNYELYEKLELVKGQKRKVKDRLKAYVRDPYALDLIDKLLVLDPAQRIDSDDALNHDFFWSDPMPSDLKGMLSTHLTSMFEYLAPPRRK
T1 sequence (O60563 1-266 partner limits assumed): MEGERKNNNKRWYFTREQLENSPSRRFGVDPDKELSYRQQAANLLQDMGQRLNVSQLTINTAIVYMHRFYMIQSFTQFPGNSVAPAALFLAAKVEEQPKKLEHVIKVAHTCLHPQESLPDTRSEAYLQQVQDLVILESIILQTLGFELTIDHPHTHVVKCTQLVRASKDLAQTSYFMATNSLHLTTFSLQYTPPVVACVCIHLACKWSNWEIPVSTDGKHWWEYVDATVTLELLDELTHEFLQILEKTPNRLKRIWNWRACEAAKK
Method: as §1
Protein Purification. Buffers for purification and elution of recombinant proteins included 0.25 mM PMSF, 1 mM DTT, 1 mM benzamidine, and 1 mM sodium metabisulfite. […]

[3] = test system: subcutaneously implanted SET-2 cells; assay: SET-2 subcutaneous xenotransplant model; type: in vivo; details: SCID beige mice, IP dosing daily
[4] = test system: Smad2 T220 and Smad3 T179 phosphorylation; assay: TGF-β-stimulated Smad2 T220 and Smad3 T179 phosphorylation immunoblot; type: cell-based, human; details: HaCaT cells
Method: as §1

Compound: CN(C)[C@H]1C[C@@]23CC[C@@]4(O2)C(=CC[C@@]2(C)[C@@H](c5ccc6ccncc6c5)CC[C@H]24)C=C3[C@@H](O)[C@@H]1O [CA, cortistatin A]
- STAT1 S727 phosphorylation in NK cells [1]: dose-dependent reduction
- inhibition of STAT1 S727 phosphorylation [2]: dose-dependently inhibited
- inhibition of CDK9 (P-TEFb) (CDK9 (P-TEFb)): did not inhibit
- body weight [3]: no loss in body weight
- tumor volume reduction [3]: 71%
- inhibition of Smad2 T220 and Smad3 T179 phosphorylation [4]: dose-dependently inhibited
